Columns and labels:
[1] = test system: HeLa cells; conditions: 24h co-incubation with C004
From the text: See Goodall, M. L. et al., Developmental Cell, vol. 37, 337-349 (2016).

[2] = test system: HCC-PDX xenograft; experiment: HCC-PDX xenograft on Humanized NSG mice with TIL analysis (Example 11); format: in vivo; conditions: tumor infiltrating leukocytes
Description: Pembrolizumab 25 mg/mL (Keytruda®, Merck® KGa) was purchased from Merck®. Isotonic zinc sulfate gamma-polyglutamate solution was prepared at pH 7.0 using Tris buffer (1 mM), at elemental zinc concentration of 1 mg/mL and gamma-polyglutamate concentration of 10 mg/mL.
All manipulations and procedures with mice were approved by Agency for Science, Technology and Research (A*STAR) Institutional Animal Care and Use Committee (IACUC). The diet provided was irradiated TEKLAD GLOBAL 18% Protein Rodent Diet (2918). Mice were housed in a sterile environment and only accessed under a BSL2 hood. Mice were fed, given water and monitored daily for health, and cages were changed weekly. NSG mice were purchased from The Jackson Laboratory and bred in a specific pathogen free facility at the Biological Resource Centre (BRC) in A*STAR, Singapore. One to three days old NSG pups were irradiated with a 55 s exposure equaling 1.1 Gy and transplanted with 1×10^5 CD34+ human fetal liver cells by intra-hepatic injections. The mice were bled at 8 weeks post-transplantation to determine the fraction of human immune cell reconstitution. Reconstitution was calculated by [% hCD45+/(% hCD45++% mCD45+)]. […]
Tumor volume was measured in two dimensions (length and width) using calipers and the tumor volume was calculated using the formula: Tumor size=(length […])×½. […]

| Compound | effect of inhibitor/agonist on C004-induced necrotic cytotoxicity (LDH release assay) [1] | TIL analysis, T cell involvement [2] |
| --- | --- | --- |
| N.S=C(S)N1CCCC1 [PDTC] | did not cause a shift in the IC50 necrotic cytotoxicity | – |
| Pembrolizumab | – | solely dependent on CD8+ T cells |
